Earlier results as cited in patent US20110118360A1, “AGENT FOR ACTIVATING STEM CELLS” (priority 2008, published 2011).

What was measured:
neutrophils = conditions: shortened from 5

| Molecule | effect on 26S proteasome activity (26S proteasome) | effect on mesenchymal stem cells (mesenchymal stem cells) | maturation period of neutrophils from the progenitor cells (neutrophils) |
| --- | --- | --- | --- |
| CC(C)C[C@H](NC(=O)[C@H](Cc1ccccc1)NC(=O)c1cnccn1)B(O)O [bortesomib, [(1R)-3-methyl-1 [[(2S)-1-oxo-3-phenyl-2-[(pirasinilcarbonil)amino]propyl]amino]butyl]] | highly selective reversible inhibitor | direct pharmacological effect on mesenchymal stem cells | – |
| Filgastrim: glycoprotein consisting of 175 amino acids obtained by expression of a human gene in E. coli (protein, chains of the INN, looked up, N-terminal methionine, E. coli expressed, glycoprotein consisting of 175 amino acids obtained by expression of a human gene in E. coli) MTPLGPASSLPQSFLLKCLEQVRKIQGDGAALQEKLCATYKLCHPEELVLLGHSLGIPWAPLSSCPSQALQLAGCLSQLHSGLFLYQGLLQALEGISPELGPTLDTLQLDVADFATTIWQQMEELGMAPALQPTQGAMPAFASAFQRRAGGVLVASHLQSFLEVSYRVLRHLAQP | – | – | 1 days |
